Source: patent US9303009B2, “Migrastatins and uses thereof” (Sloan-Kettering Institute for Cancer Research, priority 2011, dated 2016)

Key:
[1] = tested on: MDA231BrM2a cells; test: cancer cell extravasation through the blood-brain barrier after intracardiac injection; assay type: in vivo, mice; details: 20 mg/kg intraperitoneally at days 0, 3 and 5; sacrificed 7 days after inoculation
Procedure: MDA231BrM2a is a human breast cancer cell line that is metastatic to the brain (Bos et al 2009). These cells stably express a triple fusion protein (thymidinekinase-GFP-luciferase) that allows detection by bioluminesce, and by immunofluorescence with anti-GFP antibodies. Cells (5×10^5 cells) were inoculated into the bloodstream of immunodeficient mice by intracardiac injection. Carboxymethyl-Migraether (cME) was administered (20 mg/kg, intraperitoneally) at days 0, 3 and 5 after injection. Mice were sacrificed 7 days after inoculation. Brains from these mice were serially sectioned (80 μm sections). Anti-GFP immunofluorescence was performed and the number of GFP(+) cells (events) per brain quantified (FIG. 1). The results establish that extravasation of these cancer cells through the blood-brain barrier (BBB) occurs during the first 7 days after inoculation. Therefore, in the experiment of FIG. 1, cME targets cells during the extravasation step.

[2] = tested on: multiple myeloma (RPMI8226, MM1S, ARP-GL, CAG-GL, OPM2-GL, SKO-007-GL, U266-GL, MM1R cells); test: toxicity by alamarBlue, multiple myeloma cell lines; assay type: cell-based, human; details: mean of 8 cell lines
Procedure: The toxicity of compounds 42-45 and their IC50 was determined on a panel of human tumor cell lines of multiple myeloma (RPMI8226, MM1S, MM1R, ARP-GL, CAG-GL, OPM2-GL, SKO-007-GL, U266-GL,) and lung cancer (H299-GL, H522-GL, H647-GL, A549-GL, A549-GL, HI993, H1075-GL, HI373, H17030) origin. Tumor cells were dissociated into a single-cell suspension by Trypsin/Collagenase IV treatment and 500 cells per well were aliquoted into each well of 384 microwell plates in 50 μl of RPMI medium with 10% FCS. Compounds 42-45 were dissolved in DMSO and serially diluted in RPMI medium plus 10% FCS and added (1 mM to 1 nM) to quadruplicate wells containing tumor cells. Dilutions of DMSO without compound were used as a control. After 18 hrs or 2 days, the cultures were pulsed with 6 μl of alamarBlue® (Invitrogen Inc. Grand Island, N.Y.) and incubated overnight. The alamarBlue® provides a cell growth indicator based on detection of metabolic activity. The assay system incorporates an oxidation-reduction indicator that both fluoresces and changes color in response to chemical reduction of growth medium resulting from cell growth. The fluorescence intensity was measured using a Synergy H1 Microplate Reader (Biotek Inc, Winooski, VT) and a dose-response curve established for IC50 determination.

[3] = tested on: AC3-TGL cells; test: human primary SCLC xenograft model, Example 15; assay type: in vivo
Description: This Example studied whether the ME analog affects tumor metastasis in a human small cell lung cancer (SCLC) primary xenograft model. These cells in primary and subsequent in vivo passages in NOD-SCID mice formed liver metastases. The tumor cells were stably transduced with a triple-fusion protein reporter construct (AC3-TGL), and were transplanted by subcutaneous injection with matrigel into NOD/SCID IL2R gamma null (NSG) mice. Started 1 day prior the inoculation of tumor cells, ME treatment was initiated by intraperitoneal injection at 40 mg/kg (ME40) or 200 mg/kg (ME200) three times a week in groups of 5 mice. Control mice were treated with DMSO vehicle. Tumor burden and metastatic spread were monitored every 5 days by serial non-invasive bioluminescent imaging. […] At the endpoint, the potential metastatic sites (liver, lung, spleen, heart and kidney, gastrointestinal tract) were surgically resected and the luciferase activity quantified by ex-vivo bioluminescence imaging (FIG. 5b).
For the results depicted in FIGS. 5a-c, AC3-TGL cells were transplanted by subcutaneous ventral injection into NSG mice. Xenografted mice were treated with indicated dosages of ME every 3 days started from day −1 after tumor inoculation: 40 mg/kg (ME40, n=5), 200 mg/kg (ME200, n=5)) and DMSO vehicle (Control, n=5). At day 45, the mice were sacrificed. Three mice in the ME200 group died before the end of treatment, at day 23, 30 and 34. (A) Tumor growth. Every 5 days, the tumor burden was monitored by in vivo Bioluminescence Imaging (BI) and data is expressed as photon flux (flux in photon/sec)+/−SEM in log scale. (B, C) Tumor metastasis at endpoint. At day 45, mice were analyzed for metastasis by ex vivo BI quantifying luciferase activity in the excised lungs (Lu), liver (Li), heart (H), kidneys (K) and the spleen (S). Measurements for each mouse are presented on the panel B (circles), with the average per group (short line) and expressed as photon flux (flux in photon/sec) in log scale. P-values were obtained using two-tailed Mann-Whitney U-test. Pictures of bioluminescence signal measured on the organs from 1 mouse of each group are presented on the panel C. Each picture is presented with the same settings (4 min exposure; photon signal; color scale from 5.E6 (min) to 1.E8 (max)).
Xenograft Model for Example 15: A human primary SCLC xenograft model was developed in 10-14 weeks old male non-obese diabetic severe combined immunodeficient (NOD/SCID) Interleukin-2 gamma Chain Receptor Null Mice (NSG). Primary tumor samples were obtained after patient informed consent. AC3-TGL primary cells growing as clumps were processed into a single-cell suspension by Trypsin/Collagenase IV (Invitrogen) sequential treatment and filtrated as described above. Xenografts were performed by subcutaneous ventral injection of 10^3 AC3-TGL cells in serum-free medium mixed with Matrigel (Becton Dickinson). One day prior to the tumor cell injection, mice were pretreated with Migrastatin Ether (ME) compounds at a dose of either 40 mg/kg or 200 mg/kg per mouse or with DMSO vehicle control (n≧5 mice per group). […] During this time, the tumor burden and metastatic spread were monitored by bioluminescence imaging (BLI) every 5 days. At day 45 (endpoint), the mice were killed and the metastatic spread of tumor cells to the lungs, liver, heart, kidneys, spleen and GI tract was assessed by ex-vivo BLI on the removed organs.

Row | SMILES | reduction in the number of events (GFP(+) cells) per brain [1] | Estimated lethal doses (LD50) ([2]; 18 h exposure) | Estimated lethal doses (LD50) ([2]; 48 h exposure) | decrease of overall metastasis ([3]; 40 mg/kg i.p. every 3 days, day 45, vs control) | mice died before the endpoint ([3]; 200 mg/kg group of 5) | metastasis inhibition ([3]; 200 mg/kg i.p. every 3 days, day 45, 2 surviving mice) | side effects in surviving mice ([3]; 200 mg/kg, 2 surviving mice, after 45 days of treatment) | tumor growth kinetics at the primary site of injection ([3]; 40 or 200 mg/kg i.p.)
1 | CO[C@H]1/C=C/CCCCCOC/C(C)=C\[C@@H](C)[C@@H]1OCC(=O)O [CME, Carboxymethyl migraether] | two-fold reduction | 503.6 µM | 452.9 µM |  |  |  |  | 
2 | CO[C@H]1/C=C/CCCCCOC/C(C)=C\[C@@H](C)[C@@H]1O [ME, migrastatin ether] |  | 794.8 µM | 881.7 µM | 93% | 3 mice | 99% | no body-weight loss, lethargy or other obvious side effects | did not significantly interfere
